Square brackets hold non-standard residues; d marks the D form. Peptide text beside a SMILES is read from it. * marks the point of attachment. Dolaproine = CO[C@@H]([C@@H]1CCCN1)[C@@H](C)C(=O)O; Dil = CC[C@H](C)[C@H](NC)[C@@H](CC(=O)O)OC; X1 = C[C@@H](N*)[C@@H](O)c1ccccc1; NMeV = CN[C@H](C(=O)O)C(C)C

What all share (assay): In vitro cytotoxicity (cell proliferation inhibition), SRB dye or Cell titer glo
What all share (assay type): cell-based, human

One data set concerns DLD-1. To be noted: DLD-1, 144 hours. As to the method:
(§1) The cell proliferation inhibitory activity of the ADC produced according to <Example 2> and the drug alone included in the ADC against cancer cell lines were measured.
(§2) Specifically, human pancreatic cancer cell lines (BxPC-3, Capan-1, and PATU-8988s), breast cancer cell lines (JIMT-1 and MDA-MB-468), gastric cancer cell lines (NCI-N87, SNU-601, and SNU-620), colon cancer cell lines (HCT15, HT29, DLD-1, SW480, and COLO205), an ovarian cancer cell line (OVCAR-3), prostate cancer cell lines (PC-3 and LNCaP), and non-small cell lung cancer cell lines (NCI-H1781, HCC827, Calu-1, and Calu-3), which are commercially available as cancer cell lines, were used. MMAE as a drug alone included in the ADC prepared according to Example 3 and SG2057 (CAS #: 260417-62-7, MedKoo Biosciences) as a PBD dimer were used. 500 cells/well to 5,000 cells/well of each cancer cell line were seeded into a 96-well plate and cultured for 24 hours, and then each of ADC1, ADC2 and ADC3 produced according to Example 3 and the drugs MMAE and SG2057 alone were treated at a concentration of […] to 100 nM (5-fold serial dilution). After 144 hours, the number of living cells was quantified using a sulforhodamine B (SRB) dye or Cell titer glo.

The next data set concerns HCT15. To be noted: HCT15, 144 hours. The method, then: as §1, §2
The next data set deals with HT29. To be noted: HT29, 144 hours. As to the method: as §1, §2
In a further data set the test system is BxPC-3. As to conditions: BxPC-3, 144 hours. As to the method:
as §1, §2

Another data set concerns COLO205. As to conditions: COLO205, 144 hours. The method, then:
as §1, §2

The next data set deals with Calu-1. As to conditions: Calu-1, 144 hours. As to the method: as §1, §2
In the next data set the test system is Calu-3. As to conditions: Calu-3, 144 hours. As to the method: as §1, §2
Another data set relates to Capan-1. To be noted: Capan-1, 144 hours. The method, then: as §1, §2
The subject of a further data set is HCC827. As to conditions: HCC827, 144 hours. The method, then: as §1, §2
The test system of a further data set is JIMT-1. To be noted: JIMT-1, 144 hours. As to the method: as §1, §2
The next data set has as its system LNCaP. As to conditions: 144 hours. The method, then:
as §1, §2

A further data set has as its system MDA-MB-468. To be noted: MDA-MB-468, 144 hours. The method, then: as §1, §2
The subject of another data set is NCI-H1781. To be noted: NCI-H1781, 144 hours. As to the method: as §1, §2
The next data set concerns NCI-N87. To be noted: NCI-N87, 144 hours. As to the method:
as §1, §2

A further data set has as its system OVCAR-3. To be noted: OVCAR-3, 144 hours. The method, then:
as §1, §2

In the next data set the test system is PC-3. As to conditions: PC-3, 144 hours. The method, then: as §1, §2
Another data set has as its system Patu8988S. As to conditions: 144 hours. As to the method: as §1, §2
Another data set has as its system SNU-601. To be noted: SNU-601, 144 hours. As to the method: as §1, §2
In a further data set the test system is SNU-620. To be noted: SNU-620, 144 hours. As to the method: as §1, §2
The test system of another data set is SW480. As to conditions: SW480, 144 hours. The method, then: as §1, §2

In general, CC50 refers to the concentration that lowers cell viability or growth by half. Low values mean harm at low concentration, high ones better tolerance by the cells. With `C=C1C[C@H]2C=Nc3cc(OCCCCCOc4cc5c(cc4OC)C(=O)N4CC(=C)C[C@H]4C=N5)c(OC)cc3C(=O)N2C1` [SG2057], the CC50 came out at 0.05 nM in the data set on DLD-1, 0.161 nM in the data set with HCT15 and 0.02 nM in the data set with HT29.
Turning to `CC[C@H](C)[C@@H]([C@@H](CC(=O)N1CCC[C@H]1[C@H](OC)[C@@H](C)C(=O)N[C@H](C)[C@@H](O)c1ccccc1)OC)N(C)C(=O)[C@@H](NC(=O)[C@@H](NC)C(C)C)C(C)C` [MMAE, monomethyl auristatin E] (H-[NMeV]V[Dil][Dolaproine]-X1), the CC50 amounted to 0.606 nM with BxPC-3; 0.628 nM in the data set with COLO205; 0.971 nM in the data set on Calu-1; 0.4 nM in the data set on Calu-3; 0.52 nM in the data set on Capan-1; 8.88 nM with DLD-1. The CC50 is 0.674 nM with HCC827; 3.87 nM in the data set on HCT15; 0.33 nM in the data set with HT29; 0.154 nM with JIMT-1; 0.551 nM in the data set with LNCaP; 0.64 nM in the data set with MDA-MB-468. Further, the CC50 in the data set on NCI-H1781 worked out at 0.208 nM; with NCI-N87 it was 0.725 nM; in the data set with OVCAR-3, 0.304 nM; in the data set with PC-3, 0.946 nM; in the data set with Patu8988S it was 0.334 nM; in the data set with SNU-601, 0.268 nM. Further, the CC50 in the data set on SNU-620 amounted to 0.651 nM; in the data set with SW480, 3.83 nM.

These data come from patent publication US20250242043A1, “ANTIBODY-DRUG CONJUGATE COMPRISING ANTIBODY AGAINST HUMAN TROP2 AND USE THEREOF” (priority 2022, published 2025).
